Where a SMILES comes first, the peptide text is derived from it.
Key:
Assay in all cases: HLA class I binding assay (cell-free competition, fluorescence polarization)
HLA A*0101 = HLA A*0101 (Homo sapiens, UniProt P04439, A114D/A174V/A182V/D101N/D185E/E176A/E190D/L180R/Q94H/R68K/S129P/T187R/V100A/V91M/W191G)
HLA A*0301 = HLA A*0301 (Homo sapiens, UniProt P04439)
HLA A*0201 = HLA A*0201 (Homo sapiens, UniProt P04439, D140Y/D185E/D98H/E176V/E277Q/G131W/G231S/I119V/I121R/I166T/I218V/L300P/L318F/N151K/N90K/P208A/P217A/Q86G/Q94H/R138H/R169H/T345S)
HLA A*2402 = HLA A*2402 (Homo sapiens, UniProt P04439, D101N/D140Y/D185E/E176V/E190D/F33S/G103R/G107R/I119L/I121M/I306V/K335N/L105A/L180Q/L300P/N151K/N90K/Q86E/Q94H/R106L/R138H/R89G/T104I/T345S/V100E/W191G/Y123F)

Row | Structure (SMILES) | IC50 (HLA A*0101) [µM] | further results
1 | CC(C)C[C@H](NC(=O)[C@H](C)NC(=O)[C@H](CO)NC(=O)[C@@H](NC(=O)[C@H](CCCCN)NC(=O)[C@H](CC(=O)O)NC(=O)[C@H](CCCNC(=N)N)NC(=O)[C@@H](N)CS)[C@@H](C)O)C(=O)N[C@@H](Cc1ccc(O)cc1)C(=O)O (H-CRDKTSALY-OH; N-terminus assumed) | > 1000 | 
2 | CC(C)C[C@H](NC(=O)[C@H](CC(=O)O)NC(=O)[C@H](CC(=O)O)NC(=O)[C@H](CO)NC(=O)[C@@H](N)CC(=O)O)C(=O)N[C@@H](CCCCN)C(=O)N[C@@H](CCC(=O)O)C(=O)N[C@@H](CO)C(=O)N[C@@H](Cc1ccc(O)cc1)C(=O)O (H-DSDDLKESY-OH) | 2.6 | 
3 | CC(C)[C@H](NC(=O)[C@H](CCC(=O)O)NC(=O)[C@H](Cc1ccccc1)NC(=O)[C@@H](NC(=O)[C@@H](N)CC(=O)O)[C@@H](C)O)C(=O)N[C@@H](Cc1ccc(O)cc1)C(=O)N[C@@H](CO)C(=O)N[C@@H](CCC(=O)O)C(=O)N[C@@H](Cc1ccc(O)cc1)C(=O)O (H-DTFEVYSEY-OH; N-terminus assumed) | > 1000 | IC50 (HLA A*0301): > 1000 µM
4 | CC[C@H](C)[C@H](NC(=O)[C@@H](N)Cc1ccccc1)C(=O)N[C@@H](CC(=O)O)C(=O)N1CCC[C@H]1C(=O)N[C@@H](CCC(N)=O)C(=O)N[C@H](C(=O)N[C@@H](CCC(=O)O)C(=O)N[C@@H](CCSC)C(=O)N[C@@H](Cc1ccccc1)C(=O)N[C@@H](CCCCN)C(=O)O)[C@@H](C)O (H-FIDPQTEMFK-OH) | 46.6 | IC50 (HLA A*0301): 8.1 µM
5 | CC(C)C[C@H](NC(=O)[C@@H]1CCCN1C(=O)[C@H](Cc1ccccc1)NC(=O)[C@H](CC(N)=O)NC(=O)[C@H](Cc1ccccc1)NC(=O)[C@H](CC(N)=O)NC(=O)[C@H](CCC(=O)O)NC(=O)[C@H](CC(C)C)NC(=O)[C@@H](N)Cc1ccccc1)C(=O)O (H-FLENFNFPL-OH) | > 1000 | IC50 (HLA A*0201): 3.68 µM
6 | CC(C)[C@H](NC(=O)[C@H](CC(N)=O)NC(=O)[C@@H](NC(=O)[C@@H](N)Cc1ccccc1)[C@@H](C)O)C(=O)N[C@@H](CC(N)=O)C(=O)N[C@@H](CCC(N)=O)C(=O)N[C@@H](Cc1ccccc1)C(=O)N[C@@H](Cc1ccccc1)C(=O)N[C@@H](CCCCN)C(=O)O (H-FTNVNQFFK-OH) | > 1000 | IC50 (HLA A*0301): 0.921 µM
7 | NCCCC[C@H](NC(=O)[C@H](CO)NC(=O)CN)C(=O)N[C@@H](CC(N)=O)C(=O)N[C@@H](CC(=O)O)C(=O)N[C@@H](Cc1ccccc1)C(=O)N[C@@H](CCC(N)=O)C(=O)N[C@@H](CCC(N)=O)C(=O)N[C@@H](CCC(N)=O)C(=O)N[C@@H](Cc1ccc(O)cc1)C(=O)O (H-GSKNDFQQQY-OH; N-terminus assumed) | > 1000 | 
8 | CC(C)C[C@H](NC(=O)CNC(=O)[C@@H]1CCCN1C(=O)[C@H](Cc1ccccc1)NC(=O)[C@@H](NC(=O)[C@H](CO)NC(=O)[C@@H](NC(=O)[C@@H](N)Cc1c[nH]cn1)[C@@H](C)O)C(C)C)C(=O)N[C@@H](Cc1ccc(O)cc1)C(=O)O (H-HTSVFPGLY-OH) | 5.65 | 
9 | CC[C@H](C)[C@H](NC(=O)CNC(=O)[C@H](Cc1ccc(O)cc1)NC(=O)[C@@H](N)Cc1c[nH]cn1)C(=O)N[C@@H](CC(N)=O)C(=O)N1CCC[C@H]1C(=O)N[C@H](C(=O)N[C@@H](CCC(N)=O)C(=O)N[C@@H](CC(C)C)C(=O)O)C(C)C (H-HYGINPVQL-OH) |  | IC50 (HLA A*2402): 6.79 µM
10 | CC(C)[C@H](NC(=O)[C@H](CCCNC(=N)N)NC(=O)[C@H](CC(N)=O)NC(=O)[C@H](CCCCN)NC(=O)[C@H](Cc1ccc(O)cc1)NC(=O)[C@@H](NC(=O)[C@H](CC(N)=O)NC(=O)[C@H](Cc1ccc(O)cc1)NC(=O)[C@@H](N)Cc1c[nH]cn1)[C@@H](C)O)C(=O)N[C@@H](Cc1ccccc1)C(=O)O (H-HYNTYKNRVF-OH) |  | IC50 (HLA A*2402): 3 µM
11 | CC[C@H](C)[C@H](N)C(=O)N[C@H](C(=O)N[C@@H](CC(N)=O)C(=O)N[C@@H](CCCCN)C(=O)N[C@@H](CC(N)=O)C(=O)N[C@@H](CCCCN)C(=O)N[C@H](C(=O)N[C@H](C(=O)N[C@H](C(=O)N[C@@H](Cc1ccc(O)cc1)C(=O)O)[C@@H](C)CC)[C@@H](C)O)C(C)C)[C@@H](C)O (H-ITNKNKVTIY-OH) | > 1000 | IC50 (HLA A*0301): 8.72 µM
12 | CC[C@H](C)[C@H](N)C(=O)N[C@@H](Cc1c[nH]c2ccccc12)C(=O)N[C@@H](Cc1ccc(O)cc1)C(=O)N[C@@H](CCCCN)C(=O)N[C@@H](Cc1ccc(O)cc1)C(=O)N[C@H](C(=O)N[C@@H](CCC(=O)O)C(=O)N[C@@H](CO)C(=O)N[C@@H](CC(=O)O)C(=O)N[C@@H](Cc1ccccc1)C(=O)O)[C@@H](C)O (H-IWYKYTESDF-OH) |  | IC50 (HLA A*2402): 1.12 µM
13 | CC(C)[C@H](NC(=O)[C@H](CCC(=O)O)NC(=O)[C@H](Cc1ccccc1)NC(=O)[C@@H](NC(=O)[C@H](CC(=O)O)NC(=O)[C@H](CC(=O)O)NC(=O)[C@H](CCC(=O)O)NC(=O)[C@@H](N)CCCCN)[C@@H](C)O)C(=O)N[C@@H](Cc1ccc(O)cc1)C(=O)O (H-KEDDTFEVY-OH; N-terminus assumed) | > 1000 | 
14 | CC[C@H](C)[C@H](NC(=O)[C@@H](N)CC(C)C)C(=O)N[C@@H](CO)C(=O)N[C@@H](CCCNC(=N)N)C(=O)N[C@@H](CC(C)C)C(=O)N[C@H](C(=O)N[C@@H](CC(C)C)C(=O)N[C@@H](CCCCN)C(=O)N[C@@H](Cc1ccc(O)cc1)C(=O)O)[C@@H](C)O (H-LISRLTLKY-OH) | 11.5 | 
15 | CC[C@H](C)[C@H](NC(=O)[C@H](CC(N)=O)NC(=O)[C@H](CCC(=O)O)NC(=O)[C@@H](NC(=O)[C@H](CC(N)=O)NC(=O)[C@H](CO)NC(=O)[C@H](CO)NC(=O)[C@@H](N)CC(C)C)[C@@H](C)CC)C(=O)N[C@@H](Cc1ccc(O)cc1)C(=O)O (H-LSSNIENIY-OH) | 29.6 | 
16 | CC(C)C[C@H](N)C(=O)N[C@H](C(=O)N[C@@H](Cc1c[nH]cn1)C(=O)N[C@@H](CCCCN)C(=O)N[C@@H](Cc1ccc(O)cc1)C(=O)N[C@@H](CC(N)=O)C(=O)N[C@@H](CCC(=O)O)C(=O)N[C@@H](Cc1ccccc1)C(=O)N[C@H](C(=O)O)C(C)C)[C@@H](C)O (H-LTHKYNEFV-OH) | 174 | IC50 (HLA A*0201): 2.41 µM
17 | CSCC[C@H](NC(=O)[C@H](CC(N)=O)NC(=O)[C@H](CC(N)=O)NC(=O)[C@H](CCCNC(=N)N)NC(=O)[C@H](Cc1ccccc1)NC(=O)[C@H](CC(N)=O)NC(=O)[C@H](CC(N)=O)NC(=O)[C@@H](N)CC(N)=O)C(=O)N[C@@H](Cc1ccc(O)cc1)C(=O)O (H-NNNFRNNMY-OH; N-terminus assumed) | > 1000 | 
18 | CC[C@H](C)[C@H](NC(=O)[C@H](CC(C)C)NC(=O)[C@H](CC(=O)O)NC(=O)[C@H](CC(C)C)NC(=O)[C@H](CCCCN)NC(=O)[C@H](CC(=O)O)NC(=O)[C@H](CO)NC(=O)[C@@H](N)CC(N)=O)C(=O)N[C@@H](Cc1ccc(O)cc1)C(=O)O (H-NSDKLDLIY-OH) | 0.875 | 
19 | CC(C)[C@H](NC(=O)[C@H](CC(N)=O)NC(=O)[C@@H]1CCCN1C(=O)[C@H](CO)NC(=O)[C@@H](N)CC(N)=O)C(=O)N[C@@H](CC(N)=O)C(=O)N[C@@H](CCCCN)C(=O)N[C@@H](CCCNC(=N)N)C(=O)N[C@@H](Cc1ccc(O)cc1)C(=O)O (H-NSPNVNKRY-OH; N-terminus assumed) | > 1000 | 
20 | CC(C)C[C@H](NC(=O)[C@H](C)NC(=O)[C@H](CC(=O)O)NC(=O)[C@H](Cc1ccccc1)NC(=O)[C@@H](NC(=O)[C@@H](N)CC(N)=O)[C@@H](C)O)C(=O)N[C@@H](Cc1ccc(O)cc1)C(=O)N[C@@H](Cc1ccc(O)cc1)C(=O)N[C@H](C(=O)O)C(C)C (H-NTFDALYYV-OH) | > 1000 | IC50 (HLA A*0201): 8.76 µM
21 | CC(C)[C@H](NC(=O)[C@@H](NC(=O)[C@@H](N)CC(N)=O)[C@@H](C)O)C(=O)N[C@@H](CCCCN)C(=O)N[C@@H](CS)C(=O)N1CCC[C@H]1C(=O)N[C@@H](CC(N)=O)C(=O)N[C@@H](CC(=O)O)C(=O)N[C@@H](Cc1ccc(O)cc1)C(=O)O (H-NTVKCPNDY-OH) | 282 | 
22 | C[C@H](NC(=O)[C@H](CO)NC(=O)[C@@H](N)CO)C(=O)N[C@@H](CC(N)=O)C(=O)N[C@@H](CC(=O)O)C(=O)N[C@@H](CCC(=O)O)C(=O)N[C@@H](CCC(N)=O)C(=O)N[C@@H](CO)C(=O)N[C@@H](Cc1ccc(O)cc1)C(=O)O (H-SSANDEQSY-OH) | 65 | 
23 | CC[C@H](C)[C@H](NC(=O)[C@H](CC(=O)O)NC(=O)[C@@H](NC(=O)[C@@H](N)CO)[C@@H](C)O)C(=O)N[C@H](C(=O)N[C@@H](Cc1ccccc1)C(=O)N[C@@H](CC(C)C)C(=O)N[C@H](C(=O)N[C@@H](CCSC)C(=O)N[C@@H](CCCCN)C(=O)O)[C@@H](C)O)[C@@H](C)CC (H-STDIIFLTMK-OH) | > 1000 | IC50 (HLA A*0301): 8.78 µM
24 | CSCC[C@H](NC(=O)[C@H](CC(N)=O)NC(=O)[C@H](CCC(N)=O)NC(=O)[C@H](CC(N)=O)NC(=O)[C@H](C)NC(=O)[C@H](CCSC)NC(=O)[C@@H](N)[C@@H](C)O)C(=O)N[C@@H](CC(N)=O)C(=O)N[C@@H](Cc1ccc(O)cc1)C(=O)O (H-TMANQNMNY-OH) | 2.02 | IC50 (HLA A*0301): 0.943 µM
25 | C[C@@H](O)[C@H](N)C(=O)N[C@@H](CO)C(=O)N[C@@H](CCCCN)C(=O)N[C@@H](CCC(N)=O)C(=O)NCC(=O)N[C@@H](CO)C(=O)N[C@@H](CO)C(=O)N[C@@H](CC(N)=O)C(=O)N[C@@H](CCCCN)C(=O)N[C@@H](Cc1ccc(O)cc1)C(=O)O (H-TSKQGSSNKY-OH; N-terminus assumed) | > 1000 | 
26 | CC(C)[C@H](NC(=O)[C@H](CO)NC(=O)[C@H](CCC(=O)O)NC(=O)[C@H](Cc1ccccc1)NC(=O)[C@H](Cc1ccccc1)NC(=O)[C@@H](NC(=O)[C@@H](N)[C@@H](C)O)[C@@H](C)O)C(=O)N[C@@H](CO)C(=O)N[C@@H](Cc1ccc(O)cc1)C(=O)O (H-TTFFESVSY-OH) | 338 | IC50 (HLA A*0301): 658 µM

From article PMC8138313, “Identification, Selection and Immune Assessment of Liver Stage CD8 T Cell Epitopes From Plasmodium falciparum” (Frontiers in Immunology, 2021)
